Test results from the NIST ThermoML archive (doi:10.1021/je900757k).
Numbers after ± are expanded uncertainties.

Assay: isobaric coefficient of expansion
Conditions: Liquid, DSC

c1ccccc1 [benzene]
isobaric coefficient of expansion
Conditions | 298.15 K | 308.15 K | 318.15 K | 328.15 K | 338.15 K | 348.15 K
5000 kPa | 0.0012 ± 2.9e-05 1/K | 0.00121 ± 3e-05 1/K | 0.00123 ± 3e-05 1/K | 0.00126 ± 3.1e-05 1/K | 0.00129 ± 3.2e-05 1/K | 0.00132 ± 3.2e-05 1/K
10000 kPa | 0.00116 ± 2.9e-05 1/K | 0.00118 ± 2.9e-05 1/K | 0.00119 ± 2.9e-05 1/K | 0.00121 ± 3e-05 1/K | 0.00123 ± 3e-05 1/K | 0.00125 ± 3.1e-05 1/K
15000 kPa | 0.00114 ± 2.8e-05 1/K | 0.00115 ± 2.8e-05 1/K | 0.00115 ± 2.8e-05 1/K | 0.00117 ± 2.9e-05 1/K | 0.00118 ± 2.9e-05 1/K | 0.0012 ± 2.9e-05 1/K
20000 kPa | 0.00111 ± 2.7e-05 1/K | 0.00112 ± 2.7e-05 1/K | 0.00113 ± 2.8e-05 1/K | 0.00113 ± 2.8e-05 1/K | 0.00114 ± 2.8e-05 1/K | 0.00115 ± 2.8e-05 1/K
25000 kPa | 0.00108 ± 2.6e-05 1/K | 0.00108 ± 2.7e-05 1/K | 0.00109 ± 2.7e-05 1/K | 0.0011 ± 2.7e-05 1/K | 0.0011 ± 2.7e-05 1/K | 0.00111 ± 2.7e-05 1/K
30000 kPa | 0.00105 ± 2.6e-05 1/K | 0.00106 ± 2.6e-05 1/K | 0.00106 ± 2.6e-05 1/K | 0.00106 ± 2.6e-05 1/K | 0.00107 ± 2.6e-05 1/K | 0.00108 ± 2.6e-05 1/K
35000 kPa | 0.00103 ± 2.5e-05 1/K | 0.00103 ± 2.5e-05 1/K | 0.00104 ± 2.5e-05 1/K | 0.00104 ± 2.5e-05 1/K | 0.00104 ± 2.6e-05 1/K | 0.00104 ± 2.6e-05 1/K
40000 kPa | 0.00101 ± 2.5e-05 1/K | 0.00101 ± 2.5e-05 1/K | 0.00101 ± 2.5e-05 1/K | 0.00101 ± 2.5e-05 1/K | 0.00101 ± 2.5e-05 1/K | 0.00102 ± 2.5e-05 1/K
45000 kPa | 0.000988 ± 2.4e-05 1/K | 0.00099 ± 2.4e-05 1/K | 0.000989 ± 2.4e-05 1/K | 0.000989 ± 2.4e-05 1/K | 0.000985 ± 2.4e-05 1/K | 0.000986 ± 2.4e-05 1/K
50000 kPa | 0.000971 ± 2.4e-05 1/K | 0.000972 ± 2.4e-05 1/K | 0.00097 ± 2.4e-05 1/K | 0.000966 ± 2.4e-05 1/K | 0.000966 ± 2.4e-05 1/K | 0.000963 ± 2.4e-05 1/K
55000 kPa | 0.000954 ± 2.3e-05 1/K | 0.000955 ± 2.3e-05 1/K | 0.000951 ± 2.3e-05 1/K | 0.000948 ± 2.3e-05 1/K | 0.000945 ± 2.3e-05 1/K | 0.000941 ± 2.3e-05 1/K

ClC(Cl)(Cl)Cl [tetrachloromethane]
isobaric coefficient of expansion
Conditions | 278.15 K | 288.15 K | 298.15 K | 308.15 K | 318.15 K | 328.15 K | 338.15 K | 348.15 K
5000 kPa | 0.00114 ± 2.8e-05 1/K | 0.00116 ± 2.8e-05 1/K | 0.00119 ± 2.9e-05 1/K | 0.00121 ± 3e-05 1/K | 0.00124 ± 3e-05 1/K | 0.00126 ± 3.1e-05 1/K | 0.0013 ± 3.2e-05 1/K | 0.00132 ± 3.2e-05 1/K
10000 kPa | 0.00112 ± 2.7e-05 1/K | 0.00113 ± 2.8e-05 1/K | 0.00116 ± 2.8e-05 1/K | 0.00117 ± 2.9e-05 1/K | 0.0012 ± 2.9e-05 1/K | 0.00122 ± 3e-05 1/K | 0.00125 ± 3e-05 1/K | 0.00126 ± 3.1e-05 1/K
15000 kPa | 0.00108 ± 2.7e-05 1/K | 0.0011 ± 2.7e-05 1/K | 0.00113 ± 2.8e-05 1/K | 0.00114 ± 2.8e-05 1/K | 0.00116 ± 2.9e-05 1/K | 0.00118 ± 2.9e-05 1/K | 0.00119 ± 2.9e-05 1/K | 0.00121 ± 3e-05 1/K
20000 kPa | 0.00106 ± 2.6e-05 1/K | 0.00108 ± 2.6e-05 1/K | 0.00109 ± 2.7e-05 1/K | 0.00111 ± 2.7e-05 1/K | 0.00113 ± 2.8e-05 1/K | 0.00114 ± 2.8e-05 1/K | 0.00115 ± 2.8e-05 1/K | 0.00116 ± 2.9e-05 1/K
25000 kPa | 0.00104 ± 2.6e-05 1/K | 0.00105 ± 2.6e-05 1/K | 0.00107 ± 2.6e-05 1/K | 0.00108 ± 2.6e-05 1/K | 0.00109 ± 2.7e-05 1/K | 0.0011 ± 2.7e-05 1/K | 0.00111 ± 2.7e-05 1/K | 0.00112 ± 2.8e-05 1/K
30000 kPa | 0.00102 ± 2.5e-05 1/K | 0.00103 ± 2.5e-05 1/K | 0.00104 ± 2.6e-05 1/K | 0.00105 ± 2.6e-05 1/K | 0.00106 ± 2.6e-05 1/K | 0.00107 ± 2.6e-05 1/K | 0.00108 ± 2.6e-05 1/K | 0.00109 ± 2.7e-05 1/K
35000 kPa | 0.001 ± 2.5e-05 1/K | 0.00101 ± 2.5e-05 1/K | 0.00102 ± 2.5e-05 1/K | 0.00103 ± 2.5e-05 1/K | 0.00104 ± 2.5e-05 1/K | 0.00104 ± 2.6e-05 1/K | 0.00105 ± 2.6e-05 1/K | 0.00105 ± 2.6e-05 1/K
40000 kPa | 0.000979 ± 2.4e-05 1/K | 0.000985 ± 2.4e-05 1/K | 0.000996 ± 2.4e-05 1/K | 0.00101 ± 2.5e-05 1/K | 0.00101 ± 2.5e-05 1/K | 0.00101 ± 2.5e-05 1/K | 0.00102 ± 2.5e-05 1/K | 0.00102 ± 2.5e-05 1/K
45000 kPa | 0.000959 ± 2.3e-05 1/K | 0.000967 ± 2.4e-05 1/K | 0.000978 ± 2.4e-05 1/K | 0.000978 ± 2.4e-05 1/K | 0.000986 ± 2.4e-05 1/K | 0.000986 ± 2.4e-05 1/K | 0.000988 ± 2.4e-05 1/K | 0.000993 ± 2.4e-05 1/K
50000 kPa | 0.000943 ± 2.3e-05 1/K | 0.000949 ± 2.3e-05 1/K | 0.000955 ± 2.3e-05 1/K | 0.000959 ± 2.3e-05 1/K | 0.00097 ± 2.4e-05 1/K | 0.000965 ± 2.4e-05 1/K | 0.000967 ± 2.4e-05 1/K | 0.000969 ± 2.4e-05 1/K
55000 kPa | 0.000936 ± 2.3e-05 1/K | 0.00093 ± 2.3e-05 1/K | 0.000935 ± 2.3e-05 1/K | 0.00094 ± 2.3e-05 1/K | 0.00095 ± 2.3e-05 1/K | 0.000946 ± 2.3e-05 1/K | 0.000945 ± 2.3e-05 1/K | 0.000947 ± 2.3e-05 1/K
